In the NIST ThermoML archive (doi:10.1021/acs.jced.8b00387):

Assay: xn = mol fraction of the nth substance listed
Settings: for viscosity / mass density / speed of sound: 102 kPa, Liquid; for viscosity: Concentric cylinders viscometry; for mass density: Vibrating tube method; for speed of sound: Frequency=3 MHz, Single path-length method; for surface tension liquid-gas: 295 K, Pendant drop shape

CC(CC(C)(C)C)CC(C)(C)CC(C)(C)C (stereo not given) [2,2,4,4,6,8,8-heptamethylnonane] + CCCCCCc1ccccc1
Settings | mass density [kg/m3] | speed of sound [m/s] | viscosity [mPa·s]
253.15 K, x2 = 0.1015 | 816.6 | – | 11.82
253.15 K, x2 = 0.2005 | 822.2 | – | 10.18
253.15 K, x2 = 0.2999 | 828 | – | 9.04
253.15 K, x2 = 0.4001 | 834.5 | – | 7.96
253.15 K, x2 = 0.4996 | 841.5 | – | 7.08
253.15 K, x2 = 0.6 | 849.4 | – | 6.37
253.15 K, x2 = 0.6999 | 857.7 | – | 5.78
253.15 K, x2 = 0.8 | 867.1 | – | 5.3
253.15 K, x2 = 0.9 | 877.1 | – | 4.94
288.15 K, x2 = 0.1015 | 792.77 | 1311.3 | –
288.15 K, x2 = 0.2005 | 798.05 | 1317.6 | –
288.15 K, x2 = 0.2999 | 803.73 | 1324.6 | –
288.15 K, x2 = 0.4001 | 810.02 | 1332 | –
288.15 K, x2 = 0.4996 | 816.74 | 1340.4 | –
288.15 K, x2 = 0.6 | 824.16 | 1349.4 | –
288.15 K, x2 = 0.6999 | 832.36 | 1359.3 | –
288.15 K, x2 = 0.8 | 841.37 | 1370 | –
288.15 K, x2 = 0.9 | 851.27 | 1382.2 | –
293.15 K, x2 = 0.1015 | 789.39 | 1292.1 | 3.37
293.15 K, x2 = 0.2005 | 794.63 | 1298.5 | 3.04
293.15 K, x2 = 0.2999 | 800.29 | 1305.4 | 2.75
293.15 K, x2 = 0.4001 | 806.56 | 1313 | 2.51
293.15 K, x2 = 0.4996 | 813.23 | 1321.1 | 2.3
293.15 K, x2 = 0.6 | 820.65 | 1330.2 | 2.12
293.15 K, x2 = 0.6999 | 828.75 | 1340.1 | 1.98
293.15 K, x2 = 0.8 | 837.7 | 1350.9 | 1.85
293.15 K, x2 = 0.9 | 847.55 | 1363 | 1.74
303.15 K, x2 = 0.1015 | 782.63 | 1254.4 | 2.68
303.15 K, x2 = 0.2005 | 787.8 | 1261.2 | 2.44
303.15 K, x2 = 0.2999 | 793.41 | 1267.7 | 2.23
303.15 K, x2 = 0.4001 | 799.59 | 1275.6 | 2.05
303.15 K, x2 = 0.4996 | 806.19 | 1283.4 | 1.89
303.15 K, x2 = 0.6 | 813.53 | 1292.4 | 1.78
303.15 K, x2 = 0.6999 | 821.53 | 1302.3 | 1.66
303.15 K, x2 = 0.8 | 830.36 | 1313.5 | 1.56
303.15 K, x2 = 0.9 | 840.1 | 1325.2 | 1.48
313.15 K, x2 = 0.1015 | 775.87 | 1217.8 | 2.19
313.15 K, x2 = 0.2005 | 780.97 | 1224.6 | 2
313.15 K, x2 = 0.2999 | 786.51 | 1231 | 1.84
313.15 K, x2 = 0.4001 | 792.62 | 1238.9 | 1.7
313.15 K, x2 = 0.4996 | 799.14 | 1246.6 | 1.58
313.15 K, x2 = 0.6 | 806.39 | 1255.5 | 1.49
313.15 K, x2 = 0.6999 | 814.29 | 1265.4 | 1.4
313.15 K, x2 = 0.8 | 823.01 | 1276.7 | 1.32
313.15 K, x2 = 0.9 | 832.64 | 1288.3 | 1.25
323.15 K, x2 = 0.1015 | 769.09 | 1181.9 | 1.82
323.15 K, x2 = 0.2005 | 774.12 | 1188.7 | 1.67
323.15 K, x2 = 0.2999 | 779.61 | 1195.1 | 1.55
323.15 K, x2 = 0.4001 | 785.63 | 1203 | 1.44
323.15 K, x2 = 0.4996 | 792.08 | 1210.5 | 1.37
323.15 K, x2 = 0.6 | 799.24 | 1219.5 | 1.28
323.15 K, x2 = 0.6999 | 807.04 | 1229.4 | 1.2
323.15 K, x2 = 0.8 | 815.65 | 1240.5 | 1.14
323.15 K, x2 = 0.9 | 825.16 | 1252 | 1.09
333.15 K, x2 = 0.1015 | 762.29 | 1147.1 | 1.53
333.15 K, x2 = 0.2005 | 767.25 | 1153.6 | 1.42
333.15 K, x2 = 0.2999 | 772.68 | 1160.3 | 1.32
333.15 K, x2 = 0.4001 | 778.62 | 1167.9 | 1.23
333.15 K, x2 = 0.4996 | 784.99 | 1175.5 | 1.18
333.15 K, x2 = 0.6 | 792.06 | 1184.4 | 1.11
333.15 K, x2 = 0.6999 | 799.77 | 1194.3 | 1.04
333.15 K, x2 = 0.8 | 808.26 | 1205.1 | 0.99
333.15 K, x2 = 0.9 | 817.65 | 1216.8 | 0.945

Settings | surface tension liquid-gas [mN/m]
x2 = 0.1015 | 24.4
x2 = 0.2005 | 24.5
x2 = 0.2999 | 24.7
x2 = 0.4001 | 25.3
x2 = 0.4996 | 25.6
x2 = 0.6 | 25.8
x2 = 0.6999 | 26.5
x2 = 0.8 | 27.2
x2 = 0.9 | 27.9

CC(CC(C)(C)C)CC(C)(C)CC(C)(C)C (stereo not given) [2,2,4,4,6,8,8-heptamethylnonane] + CCCCc1ccccc1
Settings | mass density [kg/m3] | speed of sound [m/s] | viscosity [mPa·s]
253.15 K, x2 = 0.1007 | 815.9 | – | 11.06
253.15 K, x2 = 0.2007 | 820.7 | – | 8.94
253.15 K, x2 = 0.3 | 826.1 | – | 7.29
253.15 K, x2 = 0.3999 | 832.1 | – | 5.97
253.15 K, x2 = 0.4998 | 838.8 | – | 4.93
253.15 K, x2 = 0.5997 | 846.5 | – | 4.12
253.15 K, x2 = 0.7001 | 855.7 | – | 3.46
253.15 K, x2 = 0.7998 | 865.8 | – | 2.96
253.15 K, x2 = 0.8992 | 878.5 | – | 2.59
288.15 K, x2 = 0.1007 | 791.93 | 1308.2 | –
288.15 K, x2 = 0.2007 | 796.54 | 1311.6 | –
288.15 K, x2 = 0.3 | 801.59 | 1315.6 | –
288.15 K, x2 = 0.3999 | 807.31 | 1320.4 | –
288.15 K, x2 = 0.4998 | 813.73 | 1325.5 | –
288.15 K, x2 = 0.5997 | 820.89 | 1331.9 | –
288.15 K, x2 = 0.7001 | 829.45 | 1339.5 | –
288.15 K, x2 = 0.7998 | 839.17 | 1348.9 | –
288.15 K, x2 = 0.8992 | 850.51 | 1359.8 | –
293.15 K, x2 = 0.1007 | 788.54 | 1289.3 | 3.22
293.15 K, x2 = 0.2007 | 793.11 | 1292.7 | 2.77
293.15 K, x2 = 0.3 | 798.11 | 1296.6 | 2.41
293.15 K, x2 = 0.3999 | 803.78 | 1301.1 | 2.09
293.15 K, x2 = 0.4998 | 810.17 | 1306.3 | 1.83
293.15 K, x2 = 0.5997 | 817.24 | 1312.5 | 1.6
293.15 K, x2 = 0.7001 | 825.74 | 1320.1 | 1.41
293.15 K, x2 = 0.7998 | 835.37 | 1329.1 | 1.29
293.15 K, x2 = 0.8992 | 846.62 | 1340 | 1.15
303.15 K, x2 = 0.1007 | 781.75 | 1251.9 | 2.58
303.15 K, x2 = 0.2007 | 786.24 | 1255.2 | 2.25
303.15 K, x2 = 0.3 | 791.16 | 1258.9 | 1.97
303.15 K, x2 = 0.3999 | 796.72 | 1263.3 | 1.73
303.15 K, x2 = 0.4998 | 803 | 1268.3 | 1.55
303.15 K, x2 = 0.5997 | 809.95 | 1274.4 | 1.37
303.15 K, x2 = 0.7001 | 818.29 | 1281.9 | 1.21
303.15 K, x2 = 0.7998 | 827.77 | 1290.3 | 1.1
303.15 K, x2 = 0.8992 | 838.82 | 1300.9 | 0.993
313.15 K, x2 = 0.1007 | 774.96 | 1215.2 | 2.11
313.15 K, x2 = 0.2007 | 779.36 | 1218.4 | 1.86
313.15 K, x2 = 0.3 | 784.19 | 1222 | 1.64
313.15 K, x2 = 0.3999 | 789.65 | 1226.2 | 1.46
313.15 K, x2 = 0.4998 | 795.81 | 1231.1 | 1.3
313.15 K, x2 = 0.5997 | 802.64 | 1237 | 1.16
313.15 K, x2 = 0.7001 | 810.83 | 1244.2 | 1.03
313.15 K, x2 = 0.7998 | 820.15 | 1252.3 | 0.957
313.15 K, x2 = 0.8992 | 831.01 | 1262.7 | 0.855
323.15 K, x2 = 0.1007 | 768.15 | 1179.3 | 1.76
323.15 K, x2 = 0.2007 | 772.47 | 1182.3 | 1.56
323.15 K, x2 = 0.3 | 777.21 | 1185.8 | 1.39
323.15 K, x2 = 0.3999 | 782.56 | 1189.8 | 1.27
323.15 K, x2 = 0.4998 | 788.61 | 1194.5 | 1.14
323.15 K, x2 = 0.5997 | 795.31 | 1200.2 | 1.03
323.15 K, x2 = 0.7001 | 803.34 | 1207.2 | 0.92
323.15 K, x2 = 0.7998 | 812.49 | 1215.1 | 0.831
323.15 K, x2 = 0.8992 | 823.15 | 1225.2 | 0.754
333.15 K, x2 = 0.1007 | 761.33 | 1144.1 | 1.49
333.15 K, x2 = 0.2007 | 765.57 | 1147 | 1.33
333.15 K, x2 = 0.3 | 770.2 | 1150.3 | 1.2
333.15 K, x2 = 0.3999 | 775.45 | 1154.1 | 1.1
333.15 K, x2 = 0.4998 | 781.38 | 1158.8 | 1
333.15 K, x2 = 0.5997 | 787.95 | 1164.2 | 0.9
333.15 K, x2 = 0.7001 | 795.82 | 1170.9 | 0.812
333.15 K, x2 = 0.7998 | 804.8 | 1178.9 | 0.736
333.15 K, x2 = 0.8992 | 815.26 | 1188.7 | 0.67

Settings | surface tension liquid-gas [mN/m]
x2 = 0.1007 | 24.3
x2 = 0.2007 | 24.6
x2 = 0.3 | 24.8
x2 = 0.3999 | 25.1
x2 = 0.4998 | 25.5
x2 = 0.5997 | 26
x2 = 0.7001 | 26.2
x2 = 0.7998 | 26.7
x2 = 0.8992 | 27.3
